Assay results: publication PMC3853718 (Journal of Translational Medicine, 2013)
Where two headings read alike, the source gives them in different places.

Legend:
[1] = Plasma pharmacokinetics after 2-hour IV infusion (LC-MS/MS); conditions: read-out: AUC(tf) Mean
[2] = system: nude mice; conditions: once-daily administration for 7 days in nude mice; cited from earlier work
[3] = system: PHA-stimulated lymphocytes in whole blood; assay: Ex vivo phytohemagglutinin lymphocyte stimulation assay (BrdU incorporation)
Procedure: Whole blood isolated from subjects was treated with phytohemagglutinin (PHA) to stimulate cell division in lymphocytes. Following a brief 30-minute exposure to bromodeoxyuridine (BrdU), cells were harvested and stained using an FITC-conjugated antibody specific for BrdU, counterstained with propidium iodide/RNase A, and analyzed using a FACSCalibur flow cytometer.

[4] = clinical; conditions: human, plasma
[5] = system: solid tumors; assay: Tumor response by CT or MRI and RECIST; format: in vivo, human
[6] = system: Rb phosphorylation; conditions: cited from earlier work

CCc1cnn2c(NCc3ccc[n+]([O-])c3)cc(N3CCCC[C@H]3CCO)nc12 [dinaciclib]
AUC(0-t) ([1]; Day 15, 0.66 mg/m^2, N 1): 27.2 ng·h/mL | AUC(0-t) ([1]; Day 15, 2.59 mg/m^2, N 3): 739 ng·h/mL | AUC(0-t) ([1]; Day 15, 3.63 mg/m^2, N 6): 401 ng·h/mL | AUC(0-t) ([1]; Day 15, 7.11 mg/m^2, N 7): 710 ng·h/mL | AUC(0-t) ([1]; Day 15, 10 mg/m^2, N 3): 704 ng·h/mL | AUC(0-t) ([1]; Day 15, 12 mg/m^2, N 10): 1270 ng·h/mL | maximum tolerated dose, defined as the dose associated with 20% weight loss [2]: 60 mg/kg | plasma concentration at which BrdU incorporation was completely inhibited ([3]; 46 subjects, 0.33 to 14 mg/m^2): > 200 ng/mL | BrdU response rate ([3]; RP2D 12 mg/m^2, 7 evaluable subjects, responder = less than 5% BrdU incorporation, 2-sided 95% CI: 59%, 100%): 100% | Mean percent difference in BrdU uptake (95% CI) ([3]; RP2D 12 mg/m^2, Day 1, Predose – 2 hours, 7 patients): 10.72 (4.69, 16.75) percent | Mean percent difference in BrdU uptake (95% CI) ([3]; RP2D 12 mg/m^2, Day 1, Predose – 3 hours, 7 patients): 9.28 (1.44, 17.13) percent | Mean percent difference in BrdU uptake (95% CI) ([3]; RP2D 12 mg/m^2, Day 1, Predose – 4 hours, 7 patients): 6.05 (-4.03, 16.12) percent | Mean percent difference in BrdU uptake (95% CI) ([3]; RP2D 12 mg/m^2, Day 1, Predose – 6 hours, 7 patients): 10.16 (3.89, 16.43) percent | Mean percent difference in BrdU uptake (95% CI) ([3]; RP2D 12 mg/m^2, Day 1, Predose – 8 hours, 6 patients): 8.76 (2.87, 14.65) percent | Mean percent difference in BrdU uptake (95% CI) ([3]; RP2D 12 mg/m^2, Day 15, Predose – 2 hours, 7 patients): 14.82 (6.02, 23.61) percent | Mean percent difference in BrdU uptake (95% CI) ([3]; RP2D 12 mg/m^2, Day 15, Predose – 4 hours, 7 patients): 5.47 (-4.17, 15.12) percent | Mean percent difference in BrdU uptake (95% CI) ([3]; RP2D 12 mg/m^2, Day 15, Predose – 8 hours, 5 patients): 16.48 (5.63, 27.34) percent | BrdU incorporation ([3]; majority of samples, at plasma concentration of 100 ng/mL): less than 5% | AUC(0-inf) ([4]; intravenous, 0.33 mg/m2): 43 ng·h/mL | AUC(0-t) ([4]; intravenous, 0.33 mg/m2): 42.8 ng·h/mL | Cmax ([4]; intravenous, 0.33 mg/m2): 11.1 ng/mL | Tmax ([4]; intravenous, 0.33 mg/m2): 1 h | AUC(0-inf) ([4]; intravenous, 0.66 mg/m2): 27.6 ng·h/mL | AUC(0-t) ([4]; intravenous, 0.66 mg/m2): 28.4 ng·h/mL | Cmax ([4]; intravenous, 0.66 mg/m2): 13.2 ng/mL | Tmax ([4]; intravenous, 0.66 mg/m2): 1 h | half-life ([4]; intravenous, 0.66 mg/m2): 1.67 h | AUC(0-inf) ([4]; intravenous, 1.32 mg/m2): 134 ng·h/mL | AUC(0-t) ([4]; intravenous, 1.32 mg/m2): 134 ng·h/mL | Cmax ([4]; intravenous, 1.32 mg/m2): 69.5 ng/mL | Tmax ([4]; intravenous, 1.32 mg/m2): 1 h | half-life ([4]; intravenous, 1.32 mg/m2): 3.38 h | AUC(0-inf) ([4]; intravenous, 1.85 mg/m2): 216 ng·h/mL | AUC(0-t) ([4]; intravenous, 1.85 mg/m2): 216 ng·h/mL | Cmax ([4]; intravenous, 1.85 mg/m2): 108 ng/mL | Tmax ([4]; intravenous, 1.85 mg/m2): 2 h | half-life ([4]; intravenous, 1.85 mg/m2): 2.66 h | Cmax ([4]; intravenous, 2.59 mg/m2): 104 ng/mL | Tmax ([4]; intravenous, 2.59 mg/m2): 1 h | half-life ([4]; intravenous, 2.59 mg/m2): 3.6 h | AUC(0-inf) ([4]; intravenous, 3.63 mg/m2): 431 ng·h/mL | AUC(0-t) ([4]; intravenous, 3.63 mg/m2): 405 ng·h/mL | Cmax ([4]; intravenous, 3.63 mg/m2): 163 ng/mL | Tmax ([4]; intravenous, 3.63 mg/m2): 1 h | half-life ([4]; intravenous, 3.63 mg/m2): 3.59 h | AUC(0-inf) ([4]; intravenous, 5.08 mg/m2): 327 ng·h/mL | AUC(0-t) ([4]; intravenous, 5.08 mg/m2): 327 ng·h/mL | Cmax ([4]; intravenous, 5.08 mg/m2): 173 ng/mL | Tmax ([4]; intravenous, 5.08 mg/m2): 2 h | half-life ([4]; intravenous, 5.08 mg/m2): 3.19 h | AUC(0-inf) ([4]; intravenous, 7.11 mg/m2): 543 ng·h/mL | AUC(0-t) ([4]; intravenous, 7.11 mg/m2): 542 ng·h/mL | Cmax ([4]; intravenous, 7.11 mg/m2): 250 ng/mL | Tmax ([4]; intravenous, 7.11 mg/m2): 2 h | half-life ([4]; intravenous, 7.11 mg/m2): 3.04 h | AUC(0-inf) ([4]; intravenous, 10 mg/m2): 687 ng·h/mL | AUC(0-t) ([4]; intravenous, 10 mg/m2): 694 ng·h/mL | Cmax ([4]; intravenous, 10 mg/m2): 319 ng/mL | Tmax ([4]; intravenous, 10 mg/m2): 2 h | half-life ([4]; intravenous, 10 mg/m2): 3.02 h | AUC(0-inf) ([4]; intravenous, 12 mg/m2): 1150 ng·h/mL | AUC(0-t) ([4]; intravenous, 12 mg/m2): 1150 ng·h/mL | Cmax ([4]; intravenous, 12 mg/m2): 525 ng/mL | Tmax ([4]; intravenous, 12 mg/m2): 2 h | half-life ([4]; intravenous, 12 mg/m2): 3.28 h | AUC(0-inf) ([4]; intravenous, 14 mg/m2): 2020 ng·h/mL | AUC(0-t) ([4]; intravenous, 14 mg/m2): 2020 ng·h/mL | Cmax ([4]; intravenous, 14 mg/m2): 821 ng/mL | Tmax ([4]; intravenous, 14 mg/m2): 1 h | half-life ([4]; intravenous, 14 mg/m2): 3.09 h | half-life ([4]; iv): 1.5 to 3.6 h | Number of cycles ([5]; Subject 2902, NSCLC, 0.66 mg/m^2, stable disease): 6 | Number of cycles ([5]; Subject 2910, Pseudomyxoma peritonei, 2.59 mg/m^2, stable disease): 9 | Number of cycles ([5]; Subject 2913, Prostate cancer, 3.63 mg/m^2, stable disease): 4 | Number of cycles ([5]; Subject 2920, Melanoma, 3.63 mg/m^2, stable disease): 10 | Number of cycles ([5]; Subject 2926, Sarcoma, 7.11 mg/m^2, stable disease): 12 | Number of cycles ([5]; Subject 2928, Gastrointestinal stromal tumor, 7.11 mg/m^2, stable disease): 10 | Number of cycles ([5]; Subject 2931, Esophageal carcinoma, 7.11 mg/m^2, stable disease): 11 | Number of cycles ([5]; Subject 2932, Adenoid cyst carcinoma, 7.11 mg/m^2, stable disease): 5 | Number of cycles ([5]; Subject 2937, Adenoid cyst carcinoma, 14.0 mg/m^2, stable disease): 8 | Number of cycles ([5]; Subject 2945, NSCLC, 12.0 mg/m^2, stable disease): 4 | subjects with prolonged SD for at least 4 cycles of treatment ([5]; all dose levels): at least 10 subjects | complete or partial responses (RECIST) ([5]; subjects with solid tumors, all dose levels): no observed complete or partial responses | Rb phosphorylation in mouse skin biopsies ([6]; 2 hours post treatment): partial loss | Rb phosphorylation in mouse skin biopsies ([6]; 4 hours post treatment): complete loss of Rb phosphorylation
